Source: the supplement of paper PMC13380429

Columns and labels:
Details in all cases: 72 h
Caco-2 [1] = assay: drug sensitivity score (DSS) for viability; higher = more toxic; extreme values may be limits of the assay
U2OS [2] = assay: as above
HepG2 [3] = assay: as above
Calu-3 [4] = assay: as above
Vero E6 [5] = assay: as above
Caco-2 [6] = assay: relative viability EC50 (midpoint between 100% and the lowest measured viability); higher = less toxic
U2OS [7] = assay: as above
HepG2 [8] = assay: as above
Calu-3 [9] = assay: as above
Vero E6 [10] = assay: as above
Caco-2 [11] = assay: cell viability relative to DMSO; higher = less toxic
U2OS [12] = assay: as above
HepG2 [13] = assay: as above
Calu-3 [14] = assay: as above
Vero E6 [15] = assay: as above

Row | SMILES | drug sensitivity score (Caco-2 [1]) | drug sensitivity score (U2OS [2]) | drug sensitivity score (HepG2 [3]) | drug sensitivity score (Calu-3 [4]) | drug sensitivity score (Vero E6 [5]) | relative viability EC50 (Caco-2 [6]) | relative viability EC50 (U2OS [7]) | relative viability EC50 (HepG2 [8]) | relative viability EC50 (Calu-3 [9]) | relative viability EC50 (Vero E6 [10]) | cell viability (Caco-2 [11]; 1 nM) | cell viability (Caco-2 [11]; 10 nM) | cell viability (Caco-2 [11]; 100 nM) | cell viability (Caco-2 [11]; 1000 nM) | cell viability (Caco-2 [11]; 10000 nM) | cell viability (U2OS [12]; 1 nM) | cell viability (U2OS [12]; 10 nM) | cell viability (U2OS [12]; 100 nM) | cell viability (U2OS [12]; 1000 nM) | cell viability (U2OS [12]; 10000 nM) | cell viability (HepG2 [13]; 1 nM) | cell viability (HepG2 [13]; 10 nM) | cell viability (HepG2 [13]; 100 nM) | cell viability (HepG2 [13]; 1000 nM) | cell viability (HepG2 [13]; 10000 nM) | cell viability (Calu-3 [14]; 1 nM) | cell viability (Calu-3 [14]; 10 nM) | cell viability (Calu-3 [14]; 100 nM) | cell viability (Calu-3 [14]; 1000 nM) | cell viability (Calu-3 [14]; 10000 nM) | cell viability (Vero E6 [15]; 1 nM) | cell viability (Vero E6 [15]; 10 nM) | cell viability (Vero E6 [15]; 100 nM) | cell viability (Vero E6 [15]; 1000 nM) | cell viability (Vero E6 [15]; 10000 nM)
1 | CCOc1cccc(NC(=O)c2ccc(N3CCCC3)c(C(F)(F)F)c2)c1 [EPPTB] | 1.6 | 0 | 0 | 0.2 | 0 | > 10 µM | > 10 µM | > 10 µM | > 10 µM | > 10 µM | 106% | 101% | 89% | 92.7% | 86.4% | 101% | 99.2% | 97.4% | 99.1% | 90.9% | 90.9% | 96.2% | 96.4% | 91.5% | 97.5% | 98.9% | 99.5% | 98.3% | 102% | 83.9% | 101% | 102% | 97.3% | 95.5% | 101%
2 | N=C(N)NC(=O)Cc1c(Cl)cccc1Cl [guanfacine] | 0 | 0 | 0 | 0 | 0 | > 10 µM | > 10 µM | > 10 µM | > 10 µM | > 10 µM | 93.9% | 95.7% | 110% | 104% | 100% | 102% | 93.1% | 104% | 97.4% | 100% | 88.5% | 95.2% | 93.3% | 94% | 101% | 92.7% | 83.6% | 98.9% | 91.7% | 99.1% | 93.8% | 105% | 101% | 104% | 89.8%
3 | CNS(=O)(=O)Cc1ccc2[nH]cc(CCN(C)C)c2c1 [sumatriptan] | 0 | 0 | 0 | 0 | 0 | > 10 µM | > 10 µM | > 10 µM | > 10 µM | > 10 µM | 91.4% | 96.7% | 104% | 106% | 96.2% | 98.1% | 95.2% | 97.8% | 96.2% | 97.7% | 81.4% | 106% | 89.1% | 101% | 99.5% | 101% | 95.7% | 93.6% | 100% | 94.4% | 91.6% | 94.4% | 87.9% | 94.7% | 103%
4 | CC(=O)N[C@@H](CSC/C=C(\C)CC/C=C(\C)CCC=C(C)C)C(=O)O [acetyl-farnesyl-cysteine] | 0 | 0 | 0 | 0 | 0 | > 10 µM | > 10 µM | > 10 µM | > 10 µM | > 10 µM | 92.9% | 98.1% | 100% | 101% | 108% | 95.7% | 96.9% | 101% | 99% | 101% | 90.9% | 92.5% | 99.8% | 102% | 105% | 108% | 84.9% | 86.6% | 99.9% | 101% | 93.9% | 107% | 93% | 99.6% | 101%
